Measurements reported in the supplement of paper PMC10307832.

Assays:
Assay in all cases: relative viability (nuclei count vs DMSO), 5 days (fraction); higher = more cells survive
[1] = compound: Cn1cc(-c2cnn3c(N)c(Br)c([C@@H]4CCCNC4)nc23)cn1
Summary of the method: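 Following overnight incubation at 37 °C, lung cancer cell lines in 1536-well plates were pinned with five library-drug doses (not always all listed) in √10 steps on vehicle-anchored plates. The cells then spent 5 days without medium change before a combined fix, permeabilisation and Hoechst stain, 4× imaging and MetaXpress nuclear counts. Viability is the treated-to-vehicle ratio of nuclei, taken as the median across plates. Only plates with control CV below 25% and at least one doubling passed.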

[2] = compound: Cn1cc(-c2cnn3c(N)c(Br)c([C@@H]4CCCNC4)nc23)cn1 + O=C(c1cc(Cc2n[nH]c(=O)c3ccccc23)ccc1F)N1CCN(C(=O)C2CC2)CC1 [Olaparib] (partner 8 µM)
Summary of the method: (§1)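 After 5 days of treatment, lung cancer cells in 1536-well plates were fixed and stained in a single step (final 0.05% Triton X-100, 1% formaldehyde, 1 ug/ml Hoechst) and their nuclei counted on 4× images. Treatment had been applied by pin tool the day after seeding as one drug alone or as a fixed anchor-drug dose with five library-drug doses (not always all listed) in √10 steps. Relative viability is the nuclei count of treated wells divided by that of vehicle wells, and values are medians of duplicate plates.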

[3] = compound: Cn1cc(-c2cnn3c(N)c(Br)c([C@@H]4CCCNC4)nc23)cn1 + N=C(N)NC(=N)NCCc1ccccc1 [Phenformin] (partner 250 µM)
Summary of the method: as §1

[4] = compound: Cn1cc(-c2cnn3c(N)c(Br)c([C@@H]4CCCNC4)nc23)cn1 + CC(=O)Nc1cccc(-n2c(=O)n(C3CC3)c(=O)c3c(Nc4ccc(I)cc4F)n(C)c(=O)c(C)c32)c1 [Trametinib] (partner 0.02 µM)
Summary of the method: as §1

Cell Line	relative viability ([1]; 0.05 µM)	relative viability ([1]; 0.1581 µM)	relative viability ([1]; 0.5 µM)	relative viability ([1]; 1.581 µM)	relative viability ([1]; 5 µM)	relative viability ([2]; first compound 0.05 µM)	relative viability ([2]; first compound 0.1581 µM)	relative viability ([2]; first compound 0.5 µM)	relative viability ([2]; first compound 1.581 µM)	relative viability ([2]; first compound 5 µM)	relative viability ([3]; first compound 0.05 µM)	relative viability ([3]; first compound 0.1581 µM)	relative viability ([3]; first compound 0.5 µM)	relative viability ([3]; first compound 1.581 µM)	relative viability ([3]; first compound 5 µM)	relative viability ([4]; first compound 0.05 µM)	relative viability ([4]; first compound 0.1581 µM)	relative viability ([4]; first compound 0.5 µM)	relative viability ([4]; first compound 1.581 µM)	relative viability ([4]; first compound 5 µM)
LCLC-97TM1	0.982	1.11	1.1	0.969	0.925	0.346	0.605	0.327	0.382	0.38	0.499	0.47	0.464	0.458	0.411	0.151	0.202	0.182	0.207	0.224
HARA	0.975	1.03	1.31	0.761	0.301	0.758	0.856	0.784	0.442	0.229	0.468	0.518	0.448	0.36	0.136	0.762	0.474	0.482	0.532	0.344
HCC-78	1	1.04	1.09	0.957	0.749	0.826	0.874	0.947	0.878	0.465	–	0.687	0.796	0.7	0.605	0.822	1.14	0.834	0.844	0.674
NCI-H1666	1.02	1.04	1.02	0.981	0.875	0.777	0.797	0.7	0.716	0.741	0.536	0.552	0.573	0.549	0.593	0.92	0.867	0.892	0.959	0.71
NCI-H2347	0.987	1.09	1.2	0.953	0.853	0.626	0.695	0.53	0.629	0.611	0.338	0.396	0.406	0.449	0.337	0.272	0.285	0.298	0.251	0.232
NCI-H838	0.955	1.06	0.882	0.885	0.878	0.79	0.911	0.797	0.611	0.648	0.483	0.66	0.552	0.324	0.554	0.501	0.521	0.496	0.505	0.471
NCI-H2023	0.982	0.89	0.705	0.304	0.167	0.473	0.336	0.253	0.253	0.139	0.426	0.368	0.245	0.203	0.129	0.606	0.336	0.416	0.227	0.185
201T	0.972	1.01	0.996	0.86	0.746	0.888	0.836	0.803	0.743	0.719	0.452	0.517	0.429	0.366	0.405	0.692	0.751	0.687	0.722	0.7
NCI-H1915	0.984	0.998	0.971	0.868	0.969	0.312	0.268	0.299	0.261	0.236	0.344	0.377	0.36	0.357	0.379	0.479	0.313	0.304	0.347	0.301
NCI-H2009	1.03	1.05	0.981	0.931	0.858	0.685	0.749	0.714	0.872	0.595	0.487	0.507	0.453	0.434	0.409	0.272	0.284	0.271	0.252	0.224
BEN	1.05	0.902	0.904	0.972	0.834	1.14	1.12	1.17	1.01	0.905	0.249	0.213	0.288	0.268	0.284	1.19	1.01	0.907	0.966	0.881
PC-14	1.04	1.01	1.01	0.707	0.425	0.211	0.213	0.222	0.19	0.125	0.515	0.429	0.668	0.388	0.211	0.816	0.929	0.581	0.337	0.272
SK-MES-1	1.09	1.08	0.979	0.606	0.34	0.879	0.596	0.441	0.34	0.2	0.664	0.735	0.663	0.419	0.188	0.595	0.567	0.607	0.346	0.222
NCI-H727	0.964	1.07	0.941	0.82	0.57	0.754	0.873	0.68	0.646	0.559	0.505	0.501	0.663	0.51	0.238	0.394	0.412	0.366	0.404	0.348
NCI-H1355	0.973	1.07	1.04	0.919	0.883	0.811	0.89	0.788	0.795	0.69	0.428	0.51	0.467	0.366	0.415	0.369	0.426	0.433	0.491	0.417
NCI-H1975	1.03	0.922	0.908	0.803	0.847	0.841	0.792	0.7	0.581	0.708	0.44	0.435	0.443	0.338	0.356	0.356	0.328	0.326	0.331	0.239
LK-2	1.04	0.951	0.836	0.729	0.711	0.664	0.648	0.771	0.568	0.373	0.374	0.471	0.258	–	0.286	0.974	1.05	0.719	0.626	0.625
NCI-H661	1.01	0.977	1.03	1.01	0.772	0.874	0.83	0.745	0.511	0.538	0.273	0.259	0.29	0.283	0.276	0.562	0.59	0.495	0.534	0.478

Cell Line	relative viability ([1]; 0.05 µM)	relative viability ([1]; 0.1581 µM)	relative viability ([1]; 0.5 µM)	relative viability ([1]; 1.581 µM)	relative viability ([1]; 5 µM)	relative viability ([2]; first compound 0.05 µM)	relative viability ([2]; first compound 0.1581 µM)	relative viability ([2]; first compound 0.5 µM)	relative viability ([2]; first compound 1.581 µM)	relative viability ([2]; first compound 5 µM)	relative viability ([3]; first compound 0.05 µM)	relative viability ([3]; first compound 0.1581 µM)	relative viability ([3]; first compound 0.5 µM)	relative viability ([3]; first compound 1.581 µM)	relative viability ([3]; first compound 5 µM)	relative viability ([4]; first compound 0.05 µM)	relative viability ([4]; first compound 0.1581 µM)	relative viability ([4]; first compound 0.5 µM)	relative viability ([4]; first compound 1.581 µM)	relative viability ([4]; first compound 5 µM)
HCC-366	1.04	1.04	0.984	1.06	0.944	0.392	0.372	0.296	0.229	0.137	0.617	0.67	0.618	0.558	0.507	0.388	0.311	0.301	0.284	0.286
HOP-62	1.07	1.16	0.956	1.01	0.812	0.321	0.262	0.208	0.241	0.199	0.648	0.866	0.737	0.527	0.62	0.354	0.376	0.404	0.339	0.34
NCI-H1944	0.947	1.07	0.929	0.713	0.481	0.408	0.448	0.374	0.378	0.349	0.212	0.199	0.198	0.194	0.186	0.406	0.382	0.39	0.374	0.379
SW 1573	0.93	1.07	1.12	0.924	0.894	0.476	0.562	0.44	0.401	0.457	0.388	0.381	0.325	0.215	0.219	0.538	0.642	0.558	0.506	0.516
LU99A	0.952	0.985	0.901	0.949	0.926	0.244	0.235	0.236	0.221	0.163	0.749	0.789	0.766	0.802	0.582	0.464	0.572	0.599	0.492	0.518
NCI-H647	0.937	1.07	0.972	0.769	0.417	0.686	0.64	0.332	0.202	0.12	0.367	0.491	0.598	0.177	0.215	0.52	0.44	0.403	0.373	0.313
A-427	1.04	0.919	1.01	0.784	0.607	0.819	0.761	0.742	0.704	0.561	0.348	0.324	0.288	0.284	0.269	0.756	0.675	0.704	0.651	0.341
COR-L 105	0.85	0.85	0.843	0.705	0.656	0.467	0.512	0.752	0.64	0.519	0.504	0.508	0.452	0.379	0.301	0.424	0.436	0.414	0.417	0.422
NCI-H441	1.28	1.26	1.15	0.862	1.31	0.672	0.697	0.494	0.37	0.43	0.785	1.15	0.915	0.841	0.727	0.431	0.491	0.426	0.337	0.429
EBC-1	1.12	1.16	0.882	0.822	0.869	0.846	0.854	0.726	0.75	0.616	–	–	–	–	–	–	–	–	–	–
NCI-H1648	0.926	0.958	0.669	0.749	0.83	0.64	0.829	1.1	1.08	0.583	–	–	–	–	–	0.443	0.478	0.421	0.435	0.515
ABC-1	0.938	0.988	0.758	0.566	0.455	–	1.1	1.17	0.783	0.456	0.252	0.236	0.254	0.218	0.192	–	–	–	–	–
NCI-H1563	0.941	0.878	0.966	0.942	0.873	–	–	–	–	–	0.593	0.658	0.642	0.614	0.605	–	–	–	–	–
NCI-H1299	1.03	1.07	1.01	0.926	0.795	0.981	0.968	1	0.738	0.472	–	–	–	–	–	–	–	–	–	–
A549	1.01	1.07	0.946	0.847	0.813	0.483	0.35	0.352	0.301	0.166	0.158	0.907	0.215	0.149	0.115	–	–	–	–	–
IA-LM	0.917	0.976	1.05	0.779	0.541	0.964	0.932	0.902	0.643	0.358	–	–	–	–	–	–	–	–	–	–
Calu-6	1.06	0.905	0.828	0.438	0.219	0.604	0.521	0.481	0.251	0.168	–	–	–	–	–	–	–	–	–	–
